Laboratory results from PubChem BioAssay (NCI).
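1) Cells in 96-well plates. 2) Compound, 48 h, 5 concentrations. 3) Linear interpolation between surrounding doses. 4) Unreached endpoint = highest concentration. TGI denotes the concentration required for complete inhibition of growth.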

Assays:
Assay in all cases: DTP human tumour cell line panel, 48 h
SNB-19 CNS = system: SNB-19 CNS
SF-295 CNS = system: SF-295 CNS
SF-539 CNS = system: SF-539 CNS
NCI-H522 lung = system: NCI-H522 lung
SK-MEL-2 melanoma = system: SK-MEL-2 melanoma
A549 NSCLC = system: A549 NSCLC
NCI-H460 lung = system: NCI-H460 lung
XF 498 CNS = system: XF 498 CNS
SF-268 CNS = system: SF-268 CNS
OVCAR-3 ovarian = system: OVCAR-3 ovarian
CAKI-1 renal = system: CAKI-1 renal
SNB-75 CNS = system: SNB-75 CNS
ACHN renal = system: ACHN renal
HOP-62 NSCLC = system: HOP-62 NSCLC
M19-MEL melanoma = system: M19-MEL melanoma
UACC-62 melanoma = system: UACC-62 melanoma
LOX IMVI melanoma = system: LOX IMVI melanoma
DLD-1 colon = system: DLD-1 colon
NCI-H226 lung = system: NCI-H226 lung
OVCAR-5 ovarian = system: OVCAR-5 ovarian
CCRF-CEM leukemia = system: CCRF-CEM leukemia
HCT-116 colon = system: HCT-116 colon
DMS 273 small cell lung = system: DMS 273 small cell lung
IGROV1 ovarian = system: IGROV1 ovarian
LXFL 529 NSCLC = system: LXFL 529 NSCLC
EKVX NSCLC = system: EKVX NSCLC
RXF 393 renal = system: RXF 393 renal
A498 renal = system: A498 renal
786-0 renal = system: 786-0 renal
K-562 leukemia = system: K-562 leukemia
SW-620 colon = system: SW-620 colon
SK-MEL-28 melanoma = system: SK-MEL-28 melanoma
TK-10 renal = system: TK-10 renal
KM20L2 colon = system: KM20L2 colon
HCT-15 colon = system: HCT-15 colon
OVCAR-4 ovarian = system: OVCAR-4 ovarian
SNB-78 CNS = system: SNB-78 CNS
HT29 colon = system: HT29 colon
UACC-257 melanoma = system: UACC-257 melanoma
UO-31 renal = system: UO-31 renal
OVCAR-8 ovarian = system: OVCAR-8 ovarian
M14 melanoma = system: M14 melanoma
MALME-3M melanoma = system: MALME-3M melanoma
HL-60(TB) leukemia = system: HL-60(TB) leukemia
MOLT-4 leukemia = system: MOLT-4 leukemia
SK-OV-3 ovarian = system: SK-OV-3 ovarian
SK-MEL-5 melanoma = system: SK-MEL-5 melanoma
COLO 205 colon = system: COLO 205 colon
SN12C renal = system: SN12C renal
U251 CNS = system: U251 CNS
HOP-92 NSCLC = system: HOP-92 NSCLC
HS 578T breast = system: HS 578T breast
HOP-18 NSCLC = system: HOP-18 NSCLC
RPMI-8226 leukemia = system: RPMI-8226 leukemia
MDA-MB-435 = system: MDA-MB-435
HCC-2998 colon = system: HCC-2998 colon
T-47D breast = system: T-47D breast
NCI-H23 lung = system: NCI-H23 lung
DMS 114 small cell lung = system: DMS 114 small cell lung
BT-549 breast = system: BT-549 breast
MCF7 breast = system: MCF7 breast
KM12 colon = system: KM12 colon
SR leukemia = system: SR leukemia
DU-145 prostate = system: DU-145 prostate

CC(=O)Nc1ccc(C(=O)NN2C(=O)C(Cl)C2c2ccc(O)cc2)cc1 (stereo not drawn)
TGI (SNB-19 CNS): > 100 µM | TGI (SF-295 CNS): > 100 µM | TGI (SF-539 CNS): > 100 µM | TGI (NCI-H522 lung): > 100 µM | TGI (SK-MEL-2 melanoma): > 100 µM | TGI (A549 NSCLC): > 100 µM | TGI (NCI-H460 lung): > 100 µM | TGI (XF 498 CNS): > 100 µM | TGI (SF-268 CNS): > 100 µM | TGI (OVCAR-3 ovarian): > 100 µM | TGI (CAKI-1 renal): > 100 µM | TGI (SNB-75 CNS): > 100 µM | TGI (ACHN renal): > 100 µM | TGI (HOP-62 NSCLC): > 100 µM | TGI (M19-MEL melanoma): > 100 µM | TGI (UACC-62 melanoma): > 100 µM | TGI (LOX IMVI melanoma): > 100 µM | TGI (DLD-1 colon): > 100 µM | TGI (NCI-H226 lung): > 100 µM | TGI (OVCAR-5 ovarian): > 100 µM | TGI (CCRF-CEM leukemia): > 100 µM | TGI (HCT-116 colon): > 100 µM | TGI (DMS 273 small cell lung): > 100 µM | TGI (IGROV1 ovarian): > 100 µM | TGI (LXFL 529 NSCLC): > 100 µM | TGI (EKVX NSCLC): > 100 µM | TGI (RXF 393 renal): > 100 µM | TGI (A498 renal): > 100 µM | TGI (786-0 renal): > 100 µM | TGI (K-562 leukemia): > 100 µM | TGI (SW-620 colon): > 100 µM | TGI (SK-MEL-28 melanoma): > 100 µM | TGI (TK-10 renal): > 100 µM | TGI (KM20L2 colon): > 100 µM | TGI (HCT-15 colon): > 100 µM | TGI (OVCAR-4 ovarian): > 100 µM | TGI (SNB-78 CNS): > 100 µM | TGI (HT29 colon): > 100 µM | TGI (UACC-257 melanoma): > 100 µM | TGI (UO-31 renal): > 100 µM | TGI (OVCAR-8 ovarian): > 100 µM | TGI (M14 melanoma): > 100 µM | TGI (MALME-3M melanoma): > 100 µM | TGI (HL-60(TB) leukemia): > 100 µM | TGI (MOLT-4 leukemia): > 100 µM | TGI (SK-OV-3 ovarian): > 100 µM | TGI (SK-MEL-5 melanoma): > 100 µM | TGI (COLO 205 colon): > 100 µM | TGI (SN12C renal): > 100 µM | TGI (U251 CNS): > 100 µM

O=C(O)COc1ccc(C(=O)/C(SS/C(C(=O)c2ccc(OCC(=O)O)c(Cl)c2Cl)=C2\C=C(c3ccc(Br)cc3)SS2)=C2/C=C(c3ccc(Br)cc3)SS2)c(Cl)c1Cl
TGI (HOP-92 NSCLC): 16 µM | TGI (SNB-19 CNS): 33.1 µM | TGI (SF-295 CNS): 43.3 µM | TGI (SF-539 CNS): 26.2 µM | TGI (NCI-H522 lung): 3.95 µM | TGI (HS 578T breast): 17.4 µM | TGI (SK-MEL-2 melanoma): 33.7 µM | TGI (HOP-18 NSCLC): 39.9 µM | TGI (RPMI-8226 leukemia): 18.2 µM | TGI (A549 NSCLC): > 100 µM | TGI (NCI-H460 lung): > 71.8 µM | TGI (XF 498 CNS): 9.89 µM | TGI (SF-268 CNS): 34 µM | TGI (MDA-MB-435): > 100 µM | TGI (OVCAR-3 ovarian): 21.7 µM | TGI (CAKI-1 renal): 99.4 µM | TGI (SNB-75 CNS): 45.4 µM | TGI (HCC-2998 colon): > 42.8 µM | TGI (ACHN renal): 22 µM | TGI (HOP-62 NSCLC): 54.1 µM | TGI (M19-MEL melanoma): > 100 µM | TGI (UACC-62 melanoma): 19.3 µM | TGI (LOX IMVI melanoma): 13.7 µM | TGI (DLD-1 colon): > 63.2 µM | TGI (NCI-H226 lung): 42.1 µM | TGI (OVCAR-5 ovarian): > 100 µM | TGI (CCRF-CEM leukemia): 17 µM | TGI (HCT-116 colon): 22.1 µM | TGI (T-47D breast): 8.61 µM | TGI (DMS 273 small cell lung): > 100 µM | TGI (IGROV1 ovarian): 23.1 µM | TGI (NCI-H23 lung): 21.3 µM | TGI (LXFL 529 NSCLC): 8.98 µM | TGI (EKVX NSCLC): > 100 µM | TGI (DMS 114 small cell lung): 6.76 µM | TGI (A498 renal): > 91.7 µM | TGI (786-0 renal): > 45.3 µM | TGI (K-562 leukemia): > 100 µM | TGI (SW-620 colon): 31.2 µM | TGI (SK-MEL-28 melanoma): > 100 µM | TGI (BT-549 breast): 67.3 µM | TGI (TK-10 renal): > 100 µM | TGI (KM20L2 colon): > 100 µM | TGI (HCT-15 colon): > 40.9 µM | TGI (OVCAR-4 ovarian): > 50.1 µM | TGI (MCF7 breast): 13.2 µM | TGI (KM12 colon): 28.4 µM | TGI (SNB-78 CNS): 36.5 µM | TGI (HT29 colon): > 100 µM | TGI (UACC-257 melanoma): > 67.4 µM | TGI (UO-31 renal): 20.2 µM | TGI (OVCAR-8 ovarian): > 76 µM | TGI (M14 melanoma): > 91.6 µM | TGI (MALME-3M melanoma): 41.9 µM | TGI (HL-60(TB) leukemia): 4.67 µM | TGI (MOLT-4 leukemia): 15 µM | TGI (SK-OV-3 ovarian): > 89.5 µM | TGI (SK-MEL-5 melanoma): 43.1 µM | TGI (COLO 205 colon): 14.9 µM | TGI (SR leukemia): 8.59 µM | TGI (SN12C renal): > 100 µM | TGI (DU-145 prostate): > 100 µM | TGI (U251 CNS): 28.2 µM
